Test results published in patent publication US11098010B2 (priority 2017, dated 2021).
Counter-ions that a name gives are not always drawn.

tested on: HBV rcDNA in HepDE19 cells; experiment: HepDE19 assay with bDNA quantitation of HBV rcDNA; type: cell-based, hepatitis B virus (HBV); conditions: HepDE19 cells, inhibition of rcDNA formation, 7 day incubation, top concentration 25 μM; read-out: DE-19 bDNA EC50

First: COC(=O)NC1c2c(F)ccc(C(=O)Nc3ccc(F)c(Cl)c3)c2CC1(C)C (stereo not shown) [Compound 121, O-Methyl, N-(4-((3-chloro-4-fluorophenyl)carbamoyl)-7-fluoro-2,2-dimethyl-2,3-dihydro-1H-inden-1-yl) carbamate]
Second: CNC(=O)NC1(C)CCc2c(C(=O)Nc3ccc(F)c(Cl)c3)ccc(F)c21 (single isomer, unassigned) [Compound 223, N-(3-chloro-4-fluorophenyl)-7-fluoro-1-methyl-1-(3-methylureido)-2,3-dihydro-1H-indene-4-carboxamide]
The EC50 of the first is higher: over 25 µM for the first, 4.52 µM for the second.

Compared with `CC1(NC(=O)OCc2ccccn2)CCc2c(C(=O)Nc3ccc(F)c(Cl)c3)ccc(F)c21` (stereo not shown) [Compound 225, O-Pyridin-2-ylmethyl, N-(4-((3-chloro-4-fluorophenyl)carbamoyl)-7-fluoro-1-methyl-2,3-dihydro-1H-inden-1-yl) carbamate], `CO[C@@H]1Cc2c(C(=O)Nc3ccc(F)c(Cl)c3)ccc(F)c2[C@H]1NC(=O)OCc1ccccn1` [Compound 178, O-Pyridin-2-ylmethyl, N-((1R,2R)-4-((3-chloro-4-fluorophenyl)carbamoyl)-7-fluoro-2-methoxy-2,3-dihydro-1H-inden-1-yl) carbamate] is 50-fold lower in EC50: 2 µM for the first, 0.04 µM for the second. The second is the more potent here.

First: O=C(N[C@@H]1c2cccc(C(=O)Nc3ccc(F)c(F)c3)c2C[C@H]1O)OCc1ccccn1 [Compound 60, O-pyridin-2-ylmethyl, N-((1R,2R)-4-((3,4-difluorophenyl)carbamoyl)-2-hydroxy-2,3-dihydro-1H-inden-1-yl) carbamate]
Second: O=C(NC1CSc2c(C(=O)Nc3ccc(F)c(Cl)c3)ccc(F)c21)OCc1ccccn1 (stereo not shown) [Compound 66, O-Pyridin-2-ylmethyl, N-(7-((3-chloro-4-fluorophenyl)carbamoyl)-4-fluoro-2,3-dihydrobenzo[b]thiophen-3-yl) carbamate]
The EC50 of the first is higher: over 25 µM for the first, 0.44 µM for the second.

With `O=C(NC1CCc2c(C(=O)Nc3ccc(F)c(Cl)c3)ccnc21)OCc1ccccn1` (stereo not shown) [Compound 267, O-Pyridin-2-ylmethyl, N-(4-((3-chloro-4-fluorophenyl)carbamoyl)-6,7-dihydro-5H-cyclopenta[b]pyridin-7-yl) carbamate] the EC50 was 4.9 µM.
`O=C(NC1CCc2c(C(=O)Nc3ccc(F)c(Cl)c3)ccnc21)OCc1ccccn1` (stereo not shown) [Compound 266, O-Pyridin-2-ylmethyl, N-(4-((3-chloro-4-fluorophenyl)carbamoyl)-6,7-dihydro-5H-cyclopenta[b]pyridin-7-yl) carbamate] showed an EC50 of 0.43 µM.

same assay, conditions: Hepatitis B virus, HepDE19, 168 h, HepDE19 cells, inhibition of rcDNA formation, 7 day incubation, top concentration 25 μM; read-out: DE-19 bDNA EC50

`O=C(N[C@H]1CCc2c(C(=O)Nc3ccc(F)c(Cl)c3)ccc(F)c21)c1cnco1` [Compound 129, (S)—N-(4-((3-Chloro-4-fluorophenyl)carbamoyl)-7-fluoro-2,3-dihydro-1H-inden-1-yl)oxazole-5-carboxamide] and `O=C(N[C@H]1CCc2c(C(=O)Nc3ccc(F)c(Cl)c3)ccc(F)c21)OCc1cocn1` [Compound 93, O-Oxazol-4-ylmethyl, N—(S)-(4-((3-chloro-4-fluorophenyl)carbamoyl)-7-fluoro-2,3-dihydro-1H-inden-1-yl) carbamate] are within 1.5-fold of each other in EC50: 0.41 µM for the first, 0.49 µM for the second.

First: CC(C)(C)OC(=O)N[C@H]1CCc2c(C(=O)Nc3ccc(F)c(Cl)c3)ccc(F)c21 [Compound 10, O-tert-Butyl, N—(S)-(4-((3-chloro-4-fluorophenyl)carbamoyl)-7-fluoro-2,3-dihydro-1H-inden-1-yl) carbamate]
Second: O=C(N[C@H]1CCc2c(C(=O)Nc3ccc(F)c(Cl)c3)ccc(F)c21)OCC(F)F [Compound 84, O-2,2-Difluoroethyl, N—(S)-(4-((3-chloro-4-fluorophenyl)carbamoyl)-7-fluoro-2,3-dihydro-1H-inden-1-yl) carbamate]
The EC50 of the first is 4.7-fold higher: 0.8 µM for the first, 0.17 µM for the second. The second is the more potent here.

Going from `O=C(Nc1ccc(F)c(Cl)c1)c1ccc(F)c2c1CC[C@@H]2NS(=O)(=O)C1CCCCC1` [Compound 240, (S)—N-(3-Chloro-4-fluorophenyl)-1-(cyclohexanesulfonamido)-7-fluoro-2,3-dihydro-1H-indene-4-carboxamide] to `N#CCCOC(=O)N[C@H]1CCc2c(C(=O)Nc3ccc(F)c(Cl)c3)ccc(F)c21` [Compound 255, O—(S)-2-Cyanoethyl, N-4-(3-chloro-4-fluorophenylcarbamoyl)-7-fluoro-2,3-dihydro-1H-inden-1-yl carbamate], the EC50 falls from 0.51 µM to 0.08 µM (6.4-fold). The second is the more potent here.

Compared with `O=C(N[C@@H]1c2cccc(C(=O)Nc3ccc(F)c(Cl)c3)c2C[C@H]1O)OCc1ccccn1` [Compound 51, O-Pyridin-2-ylmethyl, N-((1R,2R)-4-((3-chloro-4-fluorophenyl)carbamoyl)-2-hydroxy-2,3-dihydro-1H-inden-1-yl) carbamate], `O=C(N[C@H]1CCc2c(C(=O)Nc3ccc(F)c(F)c3)cccc21)OCc1ccccn1` [Compound 3, O-Pyridin-2-ylmethyl, N—(S)-(4-((3,4-difluorophenyl)carbamoyl)-2,3-dihydro-1H-inden-1-yl) carbamate] is 1.7-fold lower in EC50: 0.87 µM for the first, 0.5 µM for the second.

Compared with `COC(=O)NC1CCc2c(C(=O)Nc3ccc(F)c(Cl)c3)ccnc21` (stereo not shown) [Compound 264, O-Methyl, N-(4-((3-chloro-4-fluorophenyl)carbamoyl)-6,7-dihydro-5H-cyclopenta[b]pyridin-7-yl) carbamate], `O=C(OCc1ccccn1)O[C@H]1CCc2c(C(=O)Nc3ccc(F)c(Cl)c3)ccc(F)c21` [Compound 90, (S)-4-((3-Chloro-4-fluorophenyl)carbamoyl)-7-fluoro-2,3-dihydro-1H-inden-1-yl (pyridin-2-ylmethyl) carbonate] is 3.5-fold higher in EC50: 0.54 µM for the first, 1.9 µM for the second.

`CC(C)N1Cc2c(C(=O)Nc3ccc(F)c(Cl)c3)cccc2S1(=O)=O` [Compound 278, N-(3-Chloro-4-fluorophenyl)-2-isopropyl-2,3-dihydrobenzo[d]isothiazole-4-carboxamide 1,1-dioxide] gave an EC50 of 1.3 µM.

same assay, conditions: Hepatitis B virus, HepDE19, 168 h, read-out: DE-19 bDNA EC50 (μM), HepDE19 cells, inhibition of rcDNA formation, 7 day incubation, top concentration 25 μM

Going from `O=C(N[C@H]1CCc2c(C(=O)Nc3ccc(F)c(Cl)c3)ccc(F)c21)OCc1ccc(F)cn1` [Compound 109, O-(5-Fluoropyridin-2-yl)methyl, N—(S)-(4-((3-chloro-4-fluorophenyl)carbamoyl)-7-fluoro-2,3-dihydro-1H-inden-1-yl) carbamate] to `Cc1cnc(COC(=O)N[C@H]2CCc3c(C(=O)Nc4ccc(F)c(Cl)c4)ccc(F)c32)cn1` [Compound 152, O-(5-Methylpyrazin-2-yl)methyl, N—(S)-(4-((3-chloro-4-fluorophenyl)carbamoyl)-7-fluoro-2,3-dihydro-1H-inden-1-yl)carbamate], the EC50 falls from 0.27 µM to 0.07 µM (3.9-fold). The second is the more potent here.

Compared with `O=C(NCc1ccccn1)N[C@H]1CCc2c(C(=O)Nc3ccc(F)c(Cl)c3)ccc(F)c21` [Compound 149, (S)—N-(3-chloro-4-fluorophenyl)-7-fluoro-1-(3-(pyridin-2-ylmethyl)ureido)-2,3-dihydro-1H-indene-4-carboxamide Hydrochloride], `O=C(N[C@H]1CCc2c(C(=O)Nc3ccc(F)c(Cl)c3)ccc(F)c21)OCc1ccon1` [Compound 82, O-Isoxazol-3-ylmethyl, N—(S)-(4-((3-chloro-4-fluorophenyl)carbamoyl)-7-fluoro-2,3-dihydro-1H-inden-1-yl) carbamate] is 1.6-fold lower in EC50: 0.21 µM for the first, 0.13 µM for the second. The second is the more potent here.

First: O=C(N[C@H]1CCc2c(C(=O)Nc3ccc(F)c(Cl)c3)ccc(F)c21)OCc1cccc(C(F)(F)F)n1 [Compound 168, O-(6-(Trifluoromethyl)pyridin-2-yl)methyl, N—(S)-(4-((3-chloro-4-fluorophenyl)carbamoyl)-7-fluoro-2,3-dihydro-1H-inden-1-yl) carbamate]
Second: O=C(N[C@H]1CCc2c(C(=O)Nc3ccc(F)c(Cl)c3)ccc(F)c21)OCCn1cccn1 [Compound 133, O-2-(1H-Pyrazol-1-yl)ethyl, N—(S)-(4-((3-chloro-4-fluorophenyl)carbamoyl)-7-fluoro-2,3-dihydro-1H-inden-1-yl) carbamate]
The EC50 of the first is 4.1-fold higher: 0.62 µM for the first, 0.15 µM for the second. The second is the more potent here.

First: COc1cnc(N[C@H]2CCc3c(C(=O)Nc4ccc(F)c(Cl)c4)ccc(F)c32)nc1 [Compound 49, (S)—N-(3-Chloro-4-fluorophenyl)-7-fluoro-1-((5-methoxypyrimidin-2-yl)amino)-2,3-dihydro-1H-indene-4-carboxamide]
Second: O=C(Nc1ccc(F)c(Cl)c1)c1ccc(F)c2c1CC[C@@H]2Nc1nccc(-c2ccccn2)n1 [Compound 50, (S)—N-(3-Chloro-4-fluorophenyl)-7-fluoro-1-((4-(pyridin-2-yl)pyrimidin-2-yl)amino)-2,3-dihydro-1H-indene-4-carboxamide]
The EC50 of the first is 5.9-fold lower: 0.17 µM for the first, 1 µM for the second.

Compared with `O=C1CC[C@@H](COC(=O)N[C@H]2CCc3c(C(=O)Nc4ccc(F)c(Cl)c4)ccc(F)c32)N1` [Compound 18, O—((S)-5-Oxopyrrolidin-2-yl)methyl, N—((S)-4-((3-chloro-4-fluorophenyl)carbamoyl)-7-fluoro-2,3-dihydro-1H-inden-1-yl) carbamate], `O=C(N[C@H]1CCc2c(C(=O)Nc3ccc(F)c(Cl)c3)ccc(F)c21)OCCCO` [Compound 155, O-3-Hydroxypropyl, N—(S)-(4-((3-chloro-4-fluorophenyl)carbamoyl)-7-fluoro-2,3-dihydro-1H-inden-1-yl) carbamate] is 71-fold higher in EC50: 0.34 µM for the first, 24 µM for the second.

First: O=C(N[C@H]1CCc2c(C(=O)Nc3ccc(F)c(Cl)c3)ccc(F)c21)OCCCN1CCCC1=O [Compound 86, O-3-(2-Oxopyrrolidin-1-yl)propyl, N—(S)-(4-((3-chloro-4-fluorophenyl)carbamoyl)-7-fluoro-2,3-dihydro-1H-inden-1-yl) carbamate]
Second: O=C(N[C@H]1CCc2c(C(=O)Nc3ccc(F)c(Cl)c3)ccc(F)c21)OC[C@@H]1CCCN1CC(F)(F)F [Compound 108, O-[(2S)-1-(2,2,2-Trifluoroethyl)pyrrolidin-2-yl]methyl, N-[(1S)-4-[(3-chloro-4-fluorophenyl)carbamoyl]-7-fluoro-2,3-dihydro-1H-inden-1-yl]carbamate Hydrochloride]
The EC50 of the first is 1.7-fold lower: 0.43 µM for the first, 0.72 µM for the second. The first is the more potent here.
